For assay [1], the target named is T1, Mm_Fpr1 (Mus musculus, UniProt P33766).
T1 construct: expressed in transfected cells
T1 sequence (P33766 1-364): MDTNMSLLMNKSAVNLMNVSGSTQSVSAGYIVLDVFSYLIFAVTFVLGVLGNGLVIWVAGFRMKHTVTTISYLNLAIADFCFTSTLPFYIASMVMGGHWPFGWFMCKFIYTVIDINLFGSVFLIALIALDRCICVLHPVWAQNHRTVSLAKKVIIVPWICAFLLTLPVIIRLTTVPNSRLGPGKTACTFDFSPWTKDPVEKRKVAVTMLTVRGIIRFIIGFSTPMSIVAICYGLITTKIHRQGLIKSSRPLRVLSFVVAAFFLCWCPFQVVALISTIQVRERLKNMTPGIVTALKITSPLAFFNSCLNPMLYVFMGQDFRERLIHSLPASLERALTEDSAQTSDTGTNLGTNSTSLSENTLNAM
As to the kind of experiment: Competition binding of fluorescent WKYMVm, flow cytometry. Conditions: for Log IC50 (M): log of IC50, competition with 10 nM K(5/6-FAM)-WKYMVm, HEK293 stable cells, on ice 90 min; for Log IC50 (M) / Max Comp (%): mean, ND = no competition observed; for Max Comp (%): maximum proportion of competition with 10 nM K(5/6-FAM)-WKYMVm. As to the method: (§1) Mean cell fluorescence was then measured for 5000 cells by flow cytometry using either a BD FACScalibur or BD Attune.
(§2) All data were analyzed using GraphPad Prism using the nonlinear regression log(agonist) versus response (3 parameters) function for all assays, except binding, which was analyzed using the One site-FitlogIC50 function. Bias calculations were carried out following IUPHAR guidelines as described,[27]^,[37] and data were presented as the Δ Activity ratio (Log[EmaxB/EC50B])-(Log[EmaxA/EC50A]).

In assay [2] the target is T2, Mm_Fpr2 (Mus musculus, UniProt O88536).
T2 construct: expressed in transfected cells
T2 sequence (O88536 1-351): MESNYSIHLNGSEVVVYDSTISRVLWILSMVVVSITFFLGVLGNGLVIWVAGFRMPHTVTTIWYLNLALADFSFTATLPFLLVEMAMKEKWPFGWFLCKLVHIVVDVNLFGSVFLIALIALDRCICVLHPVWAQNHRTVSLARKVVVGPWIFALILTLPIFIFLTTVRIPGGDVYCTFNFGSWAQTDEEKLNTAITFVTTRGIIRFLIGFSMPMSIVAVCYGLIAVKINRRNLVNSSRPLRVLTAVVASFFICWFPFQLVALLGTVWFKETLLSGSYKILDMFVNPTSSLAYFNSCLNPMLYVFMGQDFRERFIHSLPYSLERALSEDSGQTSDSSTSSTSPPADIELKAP
The description is as above. Conditions: for Log IC50 (M): log of IC50, competition with 10 nM K(5/6-FAM)-WKYMVm, HEK293 stable cells, on ice 90 min; for Log IC50 (M) / Max Comp (%): mean, ND = no competition observed; for Max Comp (%): maximum proportion of competition with 10 nM K(5/6-FAM)-WKYMVm. As to the method:
as §1, §2

In assay [3] the target is T3, Hs_FPR1 (Homo sapiens, UniProt P21462).
T3 construct: expressed in transfected cells
T3 sequence (P21462 1-350): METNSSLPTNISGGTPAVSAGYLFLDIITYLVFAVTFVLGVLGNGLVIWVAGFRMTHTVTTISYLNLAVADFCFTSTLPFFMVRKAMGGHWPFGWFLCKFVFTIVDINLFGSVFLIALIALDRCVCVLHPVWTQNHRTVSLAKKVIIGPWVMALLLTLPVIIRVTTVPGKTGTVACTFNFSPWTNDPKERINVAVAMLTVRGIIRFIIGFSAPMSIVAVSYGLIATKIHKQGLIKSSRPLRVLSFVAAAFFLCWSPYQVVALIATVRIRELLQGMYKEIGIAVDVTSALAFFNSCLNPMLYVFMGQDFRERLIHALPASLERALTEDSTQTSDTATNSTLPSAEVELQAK
As to the kind of experiment: ERK1/2 phosphorylation by Western blotting. It counts as cell-based. Further details: Emax: dose or concentration left out as unconfirmed. Conditions: for Log EC50 (M) / EC50: log of EC50, phosphorylation of ERK1/2, HEK293 stable cells; for Log EC50 (M) / Emax (%) / EC50: mean, ND = no pERK signal detected; for Emax (%): phospho-ERK, % of 1 μM WKYMVm.

In assay [4] the target is T4, Hs_FPR2 (Homo sapiens, UniProt P25090).
T4 construct: expressed in transfected cells
T4 sequence (P25090 1-351): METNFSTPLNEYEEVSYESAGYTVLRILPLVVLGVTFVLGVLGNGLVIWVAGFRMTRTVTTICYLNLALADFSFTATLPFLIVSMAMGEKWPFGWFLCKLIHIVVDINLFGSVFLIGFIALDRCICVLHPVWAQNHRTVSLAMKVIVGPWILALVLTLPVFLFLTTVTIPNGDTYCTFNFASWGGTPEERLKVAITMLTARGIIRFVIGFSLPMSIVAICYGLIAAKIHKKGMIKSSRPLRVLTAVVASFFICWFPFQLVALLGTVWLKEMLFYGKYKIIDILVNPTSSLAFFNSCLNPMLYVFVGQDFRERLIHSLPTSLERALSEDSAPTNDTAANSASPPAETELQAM
The assay is described as follows: ERK1/2 phosphorylation by Western blotting. Conditions: for Log EC50 (M) / EC50: log of EC50, phosphorylation of ERK1/2, HEK293 stable cells; for Log EC50 (M) / Emax (%) / EC50: mean, ND = no pERK signal detected; for Emax (%): phospho-ERK, % of 1 μM WKYMVm. It counts as cell-based. Further details: Emax: dose or concentration left out as unconfirmed.

Assay [5] has as its target T2, Mm_Fpr2. As to the kind of experiment: ERK1/2 phosphorylation by Western blotting. It counts as cell-based. Further details: Emax: dose or concentration left out as unconfirmed. Conditions: for Log EC50 (M) / EC50: log of EC50, phosphorylation of ERK1/2, HEK293 stable cells; for Log EC50 (M) / Emax (%) / EC50: mean, ND = no pERK signal detected; for Emax (%): phospho-ERK, % of 1 μM WKYMVm.

Assay [6] concerns the target T3, Hs_FPR1. As to the kind of experiment: BRET receptor-RLuc8 interaction with Arrestin 3-YFP. In kind it is cell-based. Conditions: for Emax (%) / Log EC50 (M): Arrestin 3 BRET, mean, ND = no interaction detected; for Emax (%): % of response to 1 μM WKYMVm; for Log EC50 (M): log of EC50, HEK293 transient, 10 min. In outline:
(§3)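 Receptor-RLuc8 and acceptor plasmids (Venus-mGsi or YFP-Arrestin 3, 1:4) are transfected; cells are replated after 24 h and grown 24–48 h more. Wells are equilibrated 30 min in HBSS, given coelenterazine h (5 μM final), dosed with compound 5 min later and held 10 min at 37 °C before the BRET read.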

The target of assay [7] is T1, Mm_Fpr1. Described as above. In kind it is cell-based. Conditions: for Emax (%) / Log EC50 (M): Arrestin 3 BRET, mean, ND = no interaction detected; for Emax (%): % of response to 1 μM WKYMVm; for Log EC50 (M): log of EC50, HEK293 transient, 10 min. In outline:
as §3

The target in assay [8] is T2, Mm_Fpr2. The description is as above. Conditions: for Emax (%) / Log EC50 (M): Arrestin 3 BRET, mean, ND = no interaction detected; for Emax (%): % of response to 1 μM WKYMVm; for Log EC50 (M): log of EC50, HEK293 transient, 10 min. In kind it is cell-based. In outline:
as §3

Assay [9] concerns formyl peptide receptor family (Hs_FPR1, Hs_FPR2, Mm_Fpr1, Mm_Fpr2). The assay is described as follows: Summary of main findings: receptor subtype selectivity and ligand bias across all readouts. Further details: species or system human and mouse. Conditions: for Bias: summary grade of ligand bias relative to WKYMVm, key not given; for Notes: summary of main findings, in words. An excerpt:
To determine ligand bias, a reference ligand is required, that is, “balanced” for the pathways tested.[37] […] We then used measurements of the activity ratio (Log (Emax/EC50)) for each receptor, ligand, and pathway in an attempt to observe any ligand bias (Fig. 6).

Where a SMILES comes first, the peptide text is derived from it. Where no end group is shown, it is not given here. The star is where a group is joined. For = O=C*

Consider `Cc1cccc(-c2oc(C)nc2C(=O)Nc2cnn(Cc3nc(C(C)(F)F)co3)n2)c1` [ACT-389949], for which the results for the “Log IC50 (M)” value in assay [1] and in [2] were −7.070 M and −7.192 M, respectively. Also, the entries for the “Max Comp (%)” value in assay [1] and in assay [2] were 25.96% and 80.31%, respectively. Besides, the “Log EC50 (M)” value in assay [3] is recorded as −7.37 M; in assay [4], −7.723 M; in [5], −8.394 M; in [6], −6.00 M; in [7], −5.98 M; in assay [8], −7.66 M. Moreover, the “Emax (%)” value is listed as 112.1% in assay [3]; 81.57% in assay [4]; 136.1% in assay [5]; 86.48% in [6]; 52.62% in assay [7]; 95.34% in assay [8]. Besides, in [9], the Bias result is on record as “No”.
In the case of `COc1cc(F)c([C@@H]2CNC(=O)[C@H]2NC(=O)Nc2ccccc2)c(F)c1` [BMS-986235], the IC50 in assay [1] is 1120 nM; in assay [2], 72.6 nM. Further, the “Max Comp (%)” value in assay [1] is 37.54%; in [2], 78.55%. Also, the EC50 was 16200 nM in assay [3]; 679 nM in assay [4]; 3.78 nM in assay [5]; 2290 nM in assay [6]; 6.76 nM in [7]; 151 nM in [8]. For the same compound, the Emax worked out at 116% in [4]; 116% in [5]; 5.54% in assay [6]; 18.2% in [7]; 100% in assay [8]. Moreover, the “efficacy, % of WKYMVm” value in assay [7] (Mm_Fpr1, mGsi versus Arrestin3 bias comparison) is recorded as under 20%. Besides, the Bias entry in [9] is on record as “+ (Hs_FPR2)”. Further, the Notes entry in assay [9] was “Bias against internalization”.
On to `CCCCOc1ccc(C(=O)NN2C(=O)c3ccccc3NC2c2ccc(OC)cc2)cc1` (centres unmarked) [QuinC1], for which the entries for the “Log IC50 (M)” value in [1] and in [2] were −6.114 M and −7.98 M, respectively. In addition, the “Max Comp (%)” value in [1] is on record as 52.13%; in [2], 27.99%. Also, the “Log EC50 (M)” value is recorded as −5.86 M in assay [3]; −5.882 M in [4]; −4.94 M in assay [5]; −5.35 M in assay [6]; −6.33 M in [7]; −6.40 M in assay [8]. In addition, the “Emax (%)” value in assay [3] turned out to be 92.57%; in assay [4] it was 101.7%; in assay [5], 381.2%; in assay [6], 17.25%; in [7] it was 49.50%; in assay [8], 68.75%. The Bias result in [9] is recorded as “No”. Besides, the Notes entry in assay [9] was “Partial/weak only”.
Take `CSCC[C@H](NC(=O)[C@H](Cc1ccc(O)cc1)NC(=O)[C@H](CCCCN)NC(=O)[C@@H](N)Cc1c[nH]c2ccccc12)C(=O)N[C@H](C(=O)N[C@H](CCSC)C(N)=O)C(C)C` [WKYMVm]: the Emax in assay [3] was 104%; in assay [4] it was 93.8%; in [5] it was 118%; in assay [6], 105%; in [7] it was 112%; in assay [8], 101%.
Take `CSCC[C@H](NC=O)C(=O)N[C@@H](CC(C)C)C(=O)N[C@@H](Cc1ccccc1)C(=O)N[C@@H](CCCCN)C(=O)O` [fMLFK, fMet-Leu-Phe-Lys] (For-MLFK-OH): the IC50 in assay [1] is 8260 nM; in [2], 828 nM. The “Max Comp (%)” value in assay [1] turned out to be 72.44%; in assay [2], 30.81%. Moreover, the Emax in assay [3] is 112%; in assay [4], 74.3%; in assay [5] it was 176%; in assay [6], 97.4%; in assay [7], 95.2%; in [8], 72.5%. In addition, the EC50 in assay [3] is 6.85 nM; in [4], 1320 nM; in assay [5] it was 1240 nM; in [6], 35.5 nM; in assay [7], 7240 nM; in assay [8], 16200 nM.
As for LESIFRSLLFRVM [MMK1], in assay [3], the Emax is 40.1% and the “Log EC50 (M)” value is listed as −6.84 M. Further, in assay [4], the Emax was determined as 114% and the “Log EC50 (M)” value is listed as −8.646 M. Also, in [5], the Emax was found to be 86.6% and the “Log EC50 (M)” value is reported as −6.482 M. For the same compound, in [9], the Bias result was “No” and the Notes result is listed as “Only activity at Hs_FPR2”.

(Values after publication PMC12881670, “Investigation into ligand selectivity and bias at the formyl peptide receptor family” (The Journal of Pharmacology and Experimental Therapeutics, 2025).)
